Measurements as given in US7994196B2, “Indazole compound and pharmaceutical use thereof” (Mitsubishi Tanabe Pharma Corporation, priority 2004, dated 2011).
pIC50: −log10 of the molar value.

The compounds below were run on MMP-9 production (assay: Determination of MMP-9 Production Inhibitory Activity (PMA-stimulated HEC3 cells, gelatin zymography)). Details: Endothelial cell; immortalized human vascular endothelial cells HEC3, PMA 10^-7 M stimulation, 24 hr; test substance at 10, 2, 0.4 and 0.08 μM; read-out: IC50 (MMP-9 production inhibitory rate).
Assay type: cell-based
Description: Immortalized human vascular endothelial cells HEC3 (supplied by Prof. Iijima of Nagoya University) were subcultured in RPMI1640 medium (Sigma Ltd.) containing 10% fetal calf serum.
The HEC3 cells (5×10^4 cells/well) were plated on a 24-well plate, and cultured in RPMI1640 medium containing 10% fetal calf serum for 24 hr. Each well was washed once with serum-free RPMI1640 medium. Then, RPMI1640 medium (250 μl/well) containing 0.05% fetal calf serum was added to each well, and the cells were further cultured for 2 hr.
The supernatant was removed, and the test substances (Example compounds shown in Table 1) diluted to various concentrations were added and incubated for 1 hr in 0.05% serum-containing RPMI1640 medium and the supernatant was removed again. A medium containing a test substance having the same concentration as in the pre-treatment and PMA (10^−7 M), which is a stimulant, was added at 250 μl/well, and the cells were further cultured for 24 hr.
After completion of the culture, water (50 μl) and 25 μl of SDS buffer (240 mM Tris-HCl (pH 6.8), 8% SDS, 40% glycerol) were added to the culture supernatant (25 μl), and the mixture (10 μl) was electrophoresed on a 7.5% polyacrylamide gel containing 0.1% gelatin.
After the electrophoresis, the gel was washed with Tris-HCl buffer (pH 7.5) containing 0.5% Triton X-100 (Sigma Ltd.) for 1 hr. The gel was immersed in an activation buffer (150 mM NaCl, 50 mM Tris-HCl (pH 7.5), 10 mM CaCl2) at 37° C. for 18 hr to activate MMP-9, and then stained with CBB. The obtained MMP-9 band was converted to numerical values by a densitometer (ATTO. Ltd.).
The MMP-9 production inhibitory rate by the test substance was calculated by the following equation. MMP-9 production inhibitory rate=100−100×{(test substance addition value−non-stimulation value)/(PMA stimulation value−non-stimulation value)}
The MMP-9 production inhibitory rates of the test substance at 10, 2, 0.4 and 0.08 μM were calculated, and IC50 value of the each test substance was determined using an analysis soft (RegExcel).

Row | SMILES | pIC50
1 | COc1ccccc1C1(C#N)CCN(C(=O)Nc2n[nH]c3ccccc23)CC1 [Ex. 40] | 6.08
2 | N#CC1(c2cccc(C(F)(F)F)c2)CCN(C(=O)Nc2n[nH]c3ccccc23)CC1 [Ex. 42] | 6.66
3 | N#CC1(c2ccccc2F)CCN(C(=O)Nc2n[nH]c3ccccc23)CC1 [Ex. 43] | 6.35
4 | N#CC1(c2ccc(Cl)c(C(F)(F)F)c2)CCN(C(=O)Nc2n[nH]c3ccccc23)CC1 [Ex. 44] | 6.35
5 | N#CC1(c2cc(F)cc(F)c2)CCN(C(=O)Nc2n[nH]c3ccccc23)CC1 [Ex. 47] | 6.46
6 | N#CC1(c2ccc(Br)cc2Cl)CCN(C(=O)Nc2n[nH]c3ccccc23)CC1 [Ex. 48] | 6.11

Same assay, conditions: Homo sapiens, Endothelial cell, 24 h, immortalized human vascular endothelial cells HEC3, PMA 10^-7 M stimulation, test substance at 10, 2, 0.4 and 0.08 μM, read-out: IC50 (MMP-9 production inhibitory rate)

Row | SMILES | pIC50
7 | O=C(Nc1n[nH]c2ccccc12)N1CCC(O)(c2ccc(Cl)c(C(F)(F)F)c2)CC1 [Ex. 1] | 6.10
8 | O=C(Nc1n[nH]c2ccccc12)N1CCC(O)(c2cccc(C(F)(F)F)c2)CC1 [Ex. 3] | 6.03
9 | O=C(Nc1n[nH]c2ccccc12)N1CCC(O)(c2ccc(Cl)cc2)CC1 [Ex. 4] | 6.40
10 | O=C(Nc1n[nH]c2ccccc12)N1CCC(O)(c2cc(F)cc(C(F)(F)F)c2)CC1 [Ex. 6] | 6.54
11 | O=C(Nc1n[nH]c2ccccc12)N1CCC(O)(c2ccc(F)c(C(F)(F)F)c2)CC1 [Ex. 9] | 6.47
12 | Cc1ccc(C2(O)CCN(C(=O)Nc3n[nH]c4ccccc34)CC2)cc1C(F)(F)F [Ex. 10] | 6.28
13 | O=C(Nc1n[nH]c2ccccc12)N1CCC(O)(c2cc(F)cc(F)c2)CC1 [Ex. 12] | 6.21
14 | O=C(Nc1n[nH]c2ccccc12)N1CCC(O)(c2ccc(F)c(Cl)c2)CC1 [Ex. 15] | 6.35
15 | O=C(Nc1n[nH]c2ccccc12)N1CCC(O)(c2cccc(Cl)c2F)CC1 [Ex. 20] | 6.49
16 | O=C(Nc1n[nH]c2ccccc12)N1CCC(O)(c2ccc(Cl)c(Cl)c2)CC1 [Ex. 21] | 6.42
17 | O=C(Nc1n[nH]c2ccccc12)N1CCC(O)(c2cc(F)cc(Cl)c2)CC1 [Ex. 22] | 6.48
18 | Cc1cc(C2(O)CCN(C(=O)Nc3n[nH]c4ccccc34)CC2)ccc1Cl [Ex. 23] | 6.35
19 | O=C(Nc1n[nH]c2ccccc12)N1CCC(O)(c2cccc(Cl)c2)CC1 [Ex. 24] | 6.68
20 | O=C(Nc1n[nH]c2ccccc12)N1CCC(O)(c2ccc3c(c2)OCO3)CC1 [Ex. 27] | 6.03
21 | Cc1cccc(C2(O)CCN(C(=O)Nc3n[nH]c4ccccc34)CC2)c1 [Ex. 28] | 6.44
22 | N#Cc1cccc(C2(O)CCN(C(=O)Nc3n[nH]c4ccccc34)CC2)c1 [Ex. 29] | 6.04
23 | CSc1cccc(C2(O)CCN(C(=O)Nc3n[nH]c4ccccc34)CC2)c1 [Ex. 30] | 6.52
24 | CCc1cccc(C2(O)CCN(C(=O)Nc3n[nH]c4ccccc34)CC2)c1 [Ex. 31] | 6.26
25 | O=C(Nc1n[nH]c2ccccc12)N1CCC(O)(c2cc(Cl)ccc2Cl)CC1 [Ex. 33] | 6.51

Row | SMILES | pIC50
26 | O=C(Nc1n[nH]c2ccccc12)N1CCC(O)(c2cc(C(F)(F)F)cc(C(F)(F)F)c2)CC1 [Ex. 34] | 6.37
27 | O=C(Nc1n[nH]c2ccccc12)N1CCC(O)(c2cc(C(F)(F)F)ccc2F)CC1 [Ex. 35] | 6.14
28 | O=C(Nc1n[nH]c2ccccc12)N1CCC(O)(c2cc(C(F)(F)F)ccc2Cl)CC1 [Ex. 36] | 6.27
29 | N#CC1(c2ccc(Br)s2)CCN(C(=O)Nc2n[nH]c3ccccc23)CC1 [Ex. 46] | 6.26
30 | O=C(Nc1n[nH]c2ccccc12)N1CC=C(c2ccccc2)CC1 [Ex. 49] | 6.59
31 | O=C(Nc1n[nH]c2ccccc12)N1CC=C(c2ccc(F)cc2)CC1 [Ex. 50] | 5.89
32 | O=C(Nc1n[nH]c2ccccc12)N1CC=C(c2ccccc2F)CC1 [Ex. 52] | 6.49
33 | O=C(Nc1n[nH]c2ccccc12)N1CC=C(c2ccc(F)c(Cl)c2)CC1 [Ex. 53] | 6.62
34 | O=C(Nc1n[nH]c2ccccc12)N1CC=C(c2cccc(F)c2)CC1 [Ex. 55] | 6.89
35 | O=C(Nc1n[nH]c2ccccc12)N1CC=C(c2cccc(F)c2F)CC1 [Ex. 56] | 6.64
36 | O=C(Nc1n[nH]c2ccccc12)N1CC=C(c2ccc(Cl)s2)CC1 [Ex. 58] | 6.92
37 | Cc1ccsc1C1=CCN(C(=O)Nc2n[nH]c3ccccc23)CC1 [Ex. 59] | 6.68
38 | O=C(Nc1n[nH]c2ccccc12)N1CC=C(c2cccs2)CC1 [Ex. 60] | 6.89
39 | O=C(Nc1n[nH]c2ccccc12)N1CC=C(c2cccc(C(F)(F)F)c2)CC1 [Ex. 61] | 7.00
40 | COc1ccc(C2=CCN(C(=O)Nc3n[nH]c4ccccc34)CC2)cc1OC [Ex. 62] | 6.16
41 | CN(C)c1cccc(C2=CCN(C(=O)Nc3n[nH]c4ccccc34)CC2)c1 [Ex. 63] | 6.44
42 | O=C(Nc1n[nH]c2ccccc12)N1CCc2c([nH]c3ccccc23)C1 [Ex. 64] | 6.92
43 | Cn1c2c(c3ccccc31)CCN(C(=O)Nc1n[nH]c3ccccc13)C2 [Ex. 65] | 6.80
44 | COCCn1c2c(c3ccccc31)CCN(C(=O)Nc1n[nH]c3ccccc13)C2 [Ex. 66] | 6.20

Row | SMILES | pIC50
45 | O=C(Nc1n[nH]c2ccccc12)N1CCc2c([nH]c3ccc(C(F)(F)F)cc23)C1 [Ex. 69] | 6.80
46 | O=C(Nc1n[nH]c2ccccc12)N1CCc2c([nH]c3ccc(F)cc23)C1 [Ex. 70] | 7.22
47 | O=C(Nc1n[nH]c2ccccc12)N1CCc2c([nH]c3cc(F)ccc23)C1 [Ex. 71] | 6.85
48 | O=C(Nc1n[nH]c2ccccc12)N1CCc2c([nH]c3ccc(Cl)cc23)C1 [Ex. 72] | 7.00
49 | COc1ccc2[nH]c3c(c2c1)CCN(C(=O)Nc1n[nH]c2ccccc12)C3 [Ex. 73] | 7.05
50 | O=C(Nc1n[nH]c2ccccc12)N1CCc2c([nH]c3ccc(O)cc23)C1 [Ex. 74] | 6.82
51 | O=C(Nc1n[nH]c2ccccc12)N1CCc2c([nH]c3cc(Cl)ccc23)C1 [Ex. 75] | 6.96
52 | O=C(Nc1n[nH]c2ccccc12)N1CCc2c([nH]c3cc(C(F)(F)F)ccc23)C1 [Ex. 76] | 6.62
53 | O=C(Nc1n[nH]c2ccccc12)N1CCc2c([nH]c3cccc(F)c23)C1 [Ex. 77] | 7.30
54 | O=C(Nc1n[nH]c2ccccc12)N1CCc2c([nH]c3cccc(Cl)c23)C1 [Ex. 78, 5-chloro-1,3,4,9-tetrahydro-β-carboline-2-carboxylic acid (1H-indazol-3-yl)amide] | 6.55
55 | Cc1cccc2c3c([nH]c12)CN(C(=O)Nc1n[nH]c2ccccc12)CC3 [Ex. 79, 8-methyl-1,3,4,9-tetrahydro-β-carboline-2-carboxylic acid (1H-indazol-3-yl)amide] | 6.80
56 | O=C(Nc1n[nH]c2ccccc12)N1CCc2c(sc3ccccc23)C1 [Ex. 80, 3,4-dihydro[1]benzothieno[2,3-c]pyridine-2-carboxylic acid (1H-indazol-3-yl)amide] | 6.60
57 | Cc1ccc2[nH]c3c(c2c1)CCN(C(=O)Nc1n[nH]c2ccccc12)C3 [Ex. 81, 6-methyl-1,3,4,9-tetrahydro-β-carboline-2-carboxylic acid (1H-indazol-3-yl)amide] | 7.00
58 | O=C(Nc1n[nH]c2ccccc12)N1CCc2c([nH]c3cc(Cl)c(F)cc23)C1 [Ex. 82, 7-chloro-6-fluoro-1,3,4,9-tetrahydro-β-carboline-2-carboxylic acid (1H-indazol-3-yl)amide] | 7.00
59 | O=C(Nc1n[nH]c2ccccc12)N1CCc2c([nH]c3cc(Cl)c(C(F)(F)F)cc23)C1 [Ex. 83, 7-chloro-6-(trifluoromethyl)-1,3,4,9-tetrahydro-β-carboline-2-carboxylic acid (1H-indazol-3-yl)amide] | 6.38
60 | O=C(Nc1n[nH]c2ccccc12)N1CCN(c2ccc(Cl)c(C(F)(F)F)c2)CC1 [Ex. 93, 4-[4-chloro-3-(trifluoromethyl)phenyl]-1-piperazinecarboxylic acid (1H-indazol-3-yl)amide] | 6.77
61 | O=C(Nc1n[nH]c2ccccc12)N1CCN(c2ccc(F)c(C(F)(F)F)c2)CC1 [Ex. 94, 4-[4-fluoro-3-(trifluoromethyl)phenyl]-1-piperazinecarboxylic acid (1H-indazol-3-yl)amide] | 6.47
62 | COc1ccc(N2CCN(C(=O)Nc3n[nH]c4ccccc34)CC2)cc1C(F)(F)F [Ex. 95, 4-[4-methoxy-3-(trifluoromethyl)phenyl]-1-piperazinecarboxylic acid (1H-indazol-3-yl)amide] | 6.29
63 | O=C(Nc1n[nH]c2ccccc12)N1CCN(c2cc(F)cc(C(F)(F)F)c2)CC1 [Ex. 97, 4-[3-fluoro-5-(trifluoromethyl)phenyl]-1-piperazinecarboxylic acid (1H-indazol-3-yl)amide] | 6.68
